Laboratory results reported in patent US12428406B2 (PMV Pharmaceuticals, Inc., priority 2019, dated 2025).

What follows are compounds tested against T1, p53 Y220C (Homo sapiens, UniProt P04637, Y220C) (assay: In vitro DNA binding activity assay (HTRF / TR-FRET): stabilization of p53 Y220C and increase of its DNA binding activity). Conditions: recombinant His-tagged p53 Y220C DNA binding domain (aa 94-312), biotin-labeled consensus DNA, incubated at 27° C. or 29° C. for 60 min.
T1 construct: The recombinant protein was a truncation mutant containing only amino acids 94-312 of p53; made in house; host or cells: E. coli
T1 sequence (P04637 94-312, change not shown): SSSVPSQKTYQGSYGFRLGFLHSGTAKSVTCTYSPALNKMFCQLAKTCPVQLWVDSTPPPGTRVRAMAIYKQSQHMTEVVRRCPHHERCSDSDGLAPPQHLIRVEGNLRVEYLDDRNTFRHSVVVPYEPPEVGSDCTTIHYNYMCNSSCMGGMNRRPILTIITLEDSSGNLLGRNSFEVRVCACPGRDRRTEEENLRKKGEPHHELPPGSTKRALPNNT
Assay type: biochemical
Procedure: The ability of a compound of the invention to stabilize p53 Y220C and increase the DNA binding activity of p53 Y220C was measured by a homogeneous time-resolved fluorescence (HTRF) assay. Recombinant His-tagged p53 Y220C used in the HTRF assay was expressed in the bacterium E. coli.
The binding of the recombinant His-tagged p53 Y220C protein and the biotin-labeled consensus DNA was measured using fluorescence resonance energy transfer (FRET). For the FRET assay, the binding between the p53 mutant and the DNA sequence was measured by detecting the fluorescence of the interaction between an anti-His antibody conjugated to allophycocyanin (APC) and streptavidin conjugated to europium to detect the biotin-labeled DNA.
The test compounds were prepared as 4.5 mM stock solutions in dimethyl sulfoxide (DMSO). The compounds of the disclosure were used to test the stabilization of p53 Y220C and increase in DNA binding activity of p53 Y220C. The stock solutions were then serially diluted 3-fold in DMSO, and 1.2 μL of the diluted solutions was added to each well of a 384-well polypropylene black plate.
The test and control samples were spun at 1200 rpm for 1 minute and incubated at room temperature for 15 minutes. […] The plates were spun at 1200 rpm for 1 minute and incubated at room temperature for 20 minutes. The assay signals were monitored by reading excitation at 340 nm, and emission fluorescence at 615 nm and 665 nm on a plate reader.
The percentage of activation of protein DNA binding in the presence of a compound of the invention compared to the absence of the compound was denoted by a SC150 value, which indicated the concentration of the compound required to increase the DNA binding activity by 50%. The SC150 values were calculated using either Prism™ or ActivityBase™.

Compound | SC150 (concentration of the compound required to increase the DNA binding activity by 50%)
COc1cc(S(N)(=O)=O)ccc1NCC#Cc1cc2c(N[C@H]3CC[C@@H](N4CC5CC(C4)O5)CC3)cccc2n1CC(F)(F)F [Compound 401A, 3-methoxy-4-{[3-(4-{[(1S,4S)-4-{6-oxa-3-azabicyclo[3.1.1]heptan-3-yl}cyclohexyl]amino}-1-(2,2,2-trifluoroethyl)-1H-indol-2-yl)prop-2-yn-1-yl]amino}benzene-1-sulfonamide] | ++ (++ = 0.05 μM ≤ SC150 < 0.1 μM)
CCOC(=O)c1ccc(NCC#Cc2cc3c(N[C@H]4CCN(CC)C[C@H]4F)cccc3n2CC(F)(F)F)c(OC)c1 [Compound 824A] | + (+ = 0 μM ≤ SC150 < 0.05 μM)
CNC(=O)c1cc(OC)c(NCC#Cc2cc3c(N[C@H]4CC[C@H](N(C)C)CC4)cccc3n2CC(F)(F)F)cc1F [Compound 136A, 2-fluoro-5-methoxy-N-methyl-4-{[3-(4-{[(1R,4R)-4-(dimethylamino)cyclohexyl]amino}-1-(2,2,2-trifluoroethyl)-1H-indol-2-yl)prop-2-yn-1-yl]amino}benzamide] | + (+ = 0 μM ≤ SC150 < 0.05 μM)
COc1cc(S(N)(=O)=O)ccc1NCC#Cc1cc2c(NC3CCC4(CC3)OCCO4)cccc2n1CC(F)(F)F [Compound 63A, 4-({3-[4-({1,4-dioxaspiro[4.5]decan-8-yl}amino)-1-(2,2,2-trifluoroethyl)-1H-indol-2-yl]prop-2-yn-1-yl}amino)-3-methoxy-benzene-1-sulfonamide] | + (+ = 0 μM ≤ SC150 < 0.05 μM)
COc1cc(S(C)(=O)=O)ccc1NCC#Cc1cc2c(N[C@H]3CC[C@@H](N4CCC5(CC4)COC5)CC3)cccc2n1CC(F)(F)F [Compound 374A, 2-{3-[(4-methane-sulfonyl-2-methoxy-phenyl)amino]prop-1-yn-1-yl}-N-[(1S,4S)-4-{2-oxa-7-azaspiro[3.5]nonan-7-yl}cyclohexyl]-1-(2,2,2-trifluoroethyl)-1H-indol-4-amine] | + (+ = 0 μM ≤ SC150 < 0.05 μM)
COc1cc(C(=O)NC2CCOCC2)ccc1NCC#Cc1cc2c(NC3CCN(C)CC3)cccc2n1CC(F)(F)F [Compound 500A, 3-methoxy-4-[(3-{4-[(1-methylpiperidin-4-yl)amino]-1-(2,2,2-trifluoroethyl)-1H-indol-2-yl}prop-2-yn-1-yl)amino]-N-(oxan-4-yl)benzamide] | + (+ = 0 μM ≤ SC150 < 0.05 μM)
COc1cc(S(C)(=O)=O)ccc1NCC#Cc1cc2c(NC3CCN(c4nc(C)cs4)CC3)cccc2n1CC(F)(F)F [Compound 719A] | +++ (+++ = 0.1 μM ≤ SC150 < 0.2 μM)
COc1cc(S(=O)(=O)N(C)C)ccc1NCC#Cc1cc2c(N[C@H]3CC[C@H](N4CC5(COC5)C4)CC3)cccc2n1CC(F)(F)F [Compound 267A, 4-((3-(4-(((1R,4R)-4-(2-oxa-6-azaspiro[3.3]heptan-6-yl)cyclo-hexyl)amino)-1-(2,2,2-trifluoroethyl)-1H-indol-2-yl)prop-2-yn-1-yl)amino)-3-methoxy-N,N-dimethylbenzene-sulfonamide] | + (+ = 0 μM ≤ SC150 < 0.05 μM)
COc1cc(S(C)(=O)=O)ccc1NCC#Cc1cc2c(NC(=O)N[C@H]3CC[C@H](N(C)C)CC3)cccc2n1CC(F)(F)F [Compound 12A, 3-(2-{3-[(4-methanesulfonyl-2-methoxyphenyl)amino]prop-1-yn-1-yl}-1-(2,2,2-trifluoroethyl)-1H-indol-4-yl)-1-[(1R,4R)-4-(dimethylamino)cyclohexyl]urea] | + (+ = 0 μM ≤ SC150 < 0.05 μM)
COCCN(C)[C@H]1CC[C@H](Nc2cccc3c2cc(C#CCNc2ccc(S(C)(=O)=O)cc2OC)n3CC(F)(F)F)CC1 [Compound 57A, (1R,4R)-N^4-(2-{3-[(4-methanesulfonyl-2-methoxyphenyl)amino]prop-1-yn-1-yl}-1-(2,2,2-trifluoro-ethyl)-1H-indol-4-yl)-N^1-(2-methoxyethyl)-N^1-methylcyclohexane-1,4-diamine] | + (+ = 0 μM ≤ SC150 < 0.05 μM)
COc1cc(S(N)(=O)=O)ccc1NCC#Cc1cc2c(NC3CCN(C[C@H](CO)OC)CC3)cccc2n1CC(F)(F)F [Compound 623A, 4-({3-[4-({1-[(2R)-3-hydroxy-2-methoxypropyl]piperidin-4-yl}amino)-1-(2,2,2-trifluoroethyl)-1H-indol-2-yl]prop-2-yn-1-yl}amino)-3-methoxybenzene-1-sulfonamide] | + (+ = 0 μM ≤ SC150 < 0.05 μM)
CNc1cc(S(C)(=O)=O)ccc1OCC#Cc1cc2c(NC3CCC(N4CC5(COC5)C4)CC3)cccc2n1CC(F)(F)F [Compound 245A, 2-{3-[4-methanesulfonyl-2-(methylamino)phenoxy]prop-1-yn-1-yl}-N-[(1R,4R)-4-{2-oxa-6-azaspiro[3.3]heptan-6-yl}cyclohexyl]-1-(2,2,2-trifluoroethyl)-1H-indol-4-amine] | + (+ = 0 μM ≤ SC150 < 0.05 μM)
COc1cc(S(N)(=O)=O)ccc1NCC#Cc1cc2c(NC3CCN(C[C@H]4COC(=O)O4)CC3)cccc2n1CC(F)(F)F [Compound 759A, 3-methoxy-4-[(3-{4-[(1-{[(4S)-2-oxo-1,3-dioxolan-4-yl]methyl}piperidin-4-yl)amino]-1-(2,2,2-trifluoroethyl)-1H-indol-2-yl}prop-2-yn-1-yl)amino]benzene-1-sulfonamide] | + (+ = 0 μM ≤ SC150 < 0.05 μM)
COc1cc(C(=O)O)ccc1NCC#Cc1cc2c(N[C@@H]3CCN(CC(N)=O)C[C@@H]3F)cccc2n1CC(F)(F)F [Compound 926A] | + (+ = 0 μM ≤ SC150 < 0.05 μM)
COc1cc(S(C)(=O)=O)ccc1NCC#Cc1cc2c(NC3CC4(CNC4)C3)cccc2n1CC(F)(F)F [Compound 22A, N-{2-azaspiro[3.3]heptan-6-yl}-2-{3-[(4-methane-sulfonyl-2-methoxy-phenyl)amino]prop-1-yn-1-yl}-1-(2,2,2-trifluoroethyl)-1H-indol-4-amine] | + (+ = 0 μM ≤ SC150 < 0.05 μM)
CCC(=O)OCC(CN1CCC(Nc2cccc3c2cc(C#CCNc2ccc(S(C)(=O)=O)cc2OC)n3CC(F)(F)F)CC1)OC(=O)CC (stereo not drawn) [Compound 586A, 1-{4-[(2-{3-[(4-methanesulfonyl-2-methoxyphenyl)amino]prop-1-yn-1-yl}-1-(2,2,2-trifluoroethyl)-1H-indol-4-yl)amino]piperidin-1-yl}-3-(propanoyloxy)propan-2-yl propanoate] | + (+ = 0 μM ≤ SC150 < 0.05 μM)
COc1cc(C(N)=O)ccc1NCC#Cc1cc2c(NC(=O)N3CCN(C)CC3)cccc2n1CC(F)(F)F [Compound 9A, N-(2-{3-[(4-carbamoyl-2-methoxyphenyl)amino]prop-1-yn-1-yl}-1-(2,2,2-trifluoroethyl)-1H-indol-4-yl)-4-methylpiperazine-1-carboxamide] | ++++ (++++ = 0.2 μM ≤ SC150 < 1 μM)
CNC(=O)c1ccc(NCC#Cc2cc3c(N[C@H]4CC[C@H](N(C)C)CC4)cccc3n2CC(F)(F)F)c(OCCOC)c1 [Compound 103A, 3-(2-methoxyethoxy)-N-methyl-4-{[3-(4-{[(1R,4R)-4-(dimethylamino)cyclo-hexyl]amino}-1-(2,2,2-trifluoroethyl)-1H-indol-2-yl)prop-2-yn-1-yl]amino}benzamide] | + (+ = 0 μM ≤ SC150 < 0.05 μM)
COc1cc(S(=O)(=O)N(C)CCO)ccc1NCC#Cc1cc2c(NC3CCN(C)CC3)cccc2n1CC(F)(F)F [Compound 472A, N-(2-hydroxyethyl)-3-methoxy-N-methyl-4-[(3-{4-[(1-methylpiperidin-4-yl)amino]-1-(2,2,2-trifluoroethyl)-1H-indol-2-yl}prop-2-yn-1-yl)amino]benzene-1-sulfonamide] | + (+ = 0 μM ≤ SC150 < 0.05 μM)
COc1cc(C(F)(F)F)ccc1NCC#Cc1cc2c(NC3CCN(C)CC3)cccc2n1CC(F)(F)F [Compound 515A, 2-(3-{[2-methoxy-4-(trifluoromethyl)phenyl]amino}prop-1-yn-1-yl)-N-(1-methylpiperidin-4-yl)-1-(2,2,2-trifluoroethyl)-1H-indol-4-amine] | ++ (++ = 0.05 μM ≤ SC150 < 0.1 μM)
COc1cc(S(=O)(=O)NC(C)=O)ccc1NCC#Cc1cc2c(N[C@H]3CC[C@@H](N4CC5(COC5)C4)CC3)cccc2n1CC(F)(F)F [Compound 209A, N-(3-methoxy-4-{[3-(4-{[(1S,4S)-4-{2-oxa-6-azaspiro[3.3]heptan-6-yl}cyclohexyl]amino}-1-(2,2,2-trifluoroethyl)-1H-indol-2-yl)prop-2-yn-1-yl]amino}benzene-sulfonyl)acetamide] | + (+ = 0 μM ≤ SC150 < 0.05 μM)
